# Data: patent US20170105947A1, “Appetite Suppressant Composition” (priority 2015, published 2017)
# Entries after “also recorded” stand apart in the source; their conditions may differ.
# How the values were obtained:
# [1] = in vivo; cited from earlier work
# [2] = system: rat intestinal cells; settings: added to rat intestinal cells / lumen of the intestine; cited from earlier work
# [3] = system: gastric emptying; settings: oral administration of 50-100 mg/kg, rats; cited from earlier work
# [4] = food preference of dogs; format: in vivo; settings: food containing 2,500 ppm vs untreated control
# Description: During this experience non-encapsulated trans-2-hexenal in combination with other chemicals were applied to feed.
# [5] = 13 wk, rat, cited from earlier work
# [6] = rats vs human intake of about 350 ug/kg/day; cited from earlier work
structure (smiles),measurement,setting,value
"CCCCCCCCCCC[C@@H](C[C@@H]1OC(=O)[C@H]1CCCCCC)OC(=O)[C@H](CC(C)C)NC=O [Orlistat, tetrahydrolipstatin]",known side effects,[1],"steatorrhea, fecal incontinence, frequent bowel movements and urgency, compromised absorption of fat-soluble vitamins and nutrients, increased appetite and diminished effectiveness over time"
"CCCCC/C=C/C=C/C=O [trans, trans-2,4-decadienal]",level of CCK in vitro,[2],increased the level of CCK
same,gastric emptying,[3],reduced gastric emptying
CCC/C=C/C=O [trans-2-hexenal],food preference,[4],dogs preferred the untreated control
same,body weight and intake,[5]; 4000 ppm in diet,no significant reduction; also recorded: did not significantly affect feed intake or body weight
same,changes in hematological parameters or organ weights,"[5]; dietary levels 0, 260, 640, 1600 or 4000 ppm",did not induce any changes
same,toxic levels in rats relative to normal intake by humans,[6],30 times
